Source: patent US20150329498A1, “IRAK INHIBITORS AND USES THEREOF” (Nimbus Iris, Inc., priority 2014, published 2015)

What was measured:
[1] = system: IL8 production in THP-1 cells; test: LPS induced IL8 production assay in THP-1 cells; format: cell-based; settings: Homo sapiens, 300 ng/mL LPS, measured at 16 hours
Protocol: (§1) Provided compounds were also assayed in an LPS (Lipopolysaccharide) or R848 (TLR-7 agonist) induced cytokine (TNFα and IL8) production assay in THP-1 cells, human white blood cells (hWBC), and human whole blood. The exemplary protocol for this assay in THP-1 cells was as follows below.
(§2) THP-1 cells from ATCC (TIB-202) were cultured in RPMI Medium 1640 (Invitrogen, Cat No. A10491-01), 10% fetal bovine serum (Invitrogen, Cat No. 10099141, Lot No. 8172882) containing 100 U/mL Penicillin, 100 μg/mL streptomycin (Invitrogen, Cat No. 15140-122), and 50 uM 2-Mercaptoethanol (Invitrogen, Cat No. 21985023). LPS-EK ultra pure (Invivogen, Cat No. tlrl-peklps) was used to induce IL8 and TNFα production, that was detected in the cell culture supernatant by IL8 HTRF kit (Cisbio, Cat No. 62IL8PEB) and TNFα HTRF kit (Cisbio, Cat No. 62TNFPEB), as per manufacturer instructions. Cells were cultured in 96 well assay plates at 100,000 cells per well, and compounds diluted in final 0.3% DMSO were pre-incubated with cells for 1 hour prior to stimulation with 300 ng/mL LPS. Cytokine production in cell supernatant was measured at 5 hours for TNFα production, and at 16 hours for IL8 production and assessment of cell viability.
(§3) The compound numbers correspond to the compound numbers in Table 1. Compounds having an activity designated as “A” provided an IC50≦0.5 μM; compounds having an activity designated as “B” provided an IC50 of 0.5-5.0 μM; compounds having an activity designated as “C” provided an IC50>5.0 μM. “NA” stands for “not assayed.”

[2] = system: TNFα production in THP-1 cells; test: LPS induced TNFα production assay in THP-1 cells; format: cell-based; settings: Homo sapiens, 300 ng/mL LPS, measured at 5 hours
Protocol: as §1, §2, §3

IRAK4 = biological target: T1, IRAK4 (Homo sapiens, UniProt Q9NWZ3); test: IRAK-4 activity inhibition assay (Caliper); format: biochemical; settings: 3.5 nM IRAK4, 1.5 μM Peptide 8, 37 μM ATP
T1 construct: purchased CARNA Bioscience 09-145
T1 sequence (Q9NWZ3 1-460): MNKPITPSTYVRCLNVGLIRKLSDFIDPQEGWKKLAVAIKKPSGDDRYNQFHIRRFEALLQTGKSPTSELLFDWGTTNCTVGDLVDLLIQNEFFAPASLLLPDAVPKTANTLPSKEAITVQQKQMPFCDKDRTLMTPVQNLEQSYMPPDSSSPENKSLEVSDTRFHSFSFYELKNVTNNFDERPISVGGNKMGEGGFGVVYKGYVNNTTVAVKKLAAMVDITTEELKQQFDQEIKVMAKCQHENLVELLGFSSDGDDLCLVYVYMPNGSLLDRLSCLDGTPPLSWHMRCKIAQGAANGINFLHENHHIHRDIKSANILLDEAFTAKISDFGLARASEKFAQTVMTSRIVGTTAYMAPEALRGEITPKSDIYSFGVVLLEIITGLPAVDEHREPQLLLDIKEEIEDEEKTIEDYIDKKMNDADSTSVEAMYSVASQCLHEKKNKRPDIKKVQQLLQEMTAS
Protocol: A 1x kinase base buffer was prepared from 50 mM HEPES, pH 7.5 and 0.0015% Brij-35. A stop buffer was prepared from 100 mM HEPES, pH 7.5, 0.015% Brij-35, 0.2% Coating Reagent #3, and 50 mM EDTA.
Test compound was diluted to 50× of the final desired highest inhibitor concentration in reaction by 100% DMSO. 100 ul of this compound dilution was transferred to a well in a 96-well plate. For example, if desired highest inhibitor concentration in IC50 determination is 100 uM, then prepare 5000 uM of compound DMSO solution in this step.
Test compound was serially diluted by transferring 30 μl to 60 μl of 100% DMSO in the next well and so forth for a total of 10 concentrations. 100 μl of 100% DMSO was added to two empty wells for no compound control and no enzyme control in the same 96-well plate.
A new 96-well plate was marked as intermediate plate. 5 μl of compound serial dilution was transferred from source plate to the corresponding wells of the intermediate plate. 45 μl of 1x kinase base buffer (KB buffer) was added to each well of the intermediate plate. The intermediate plate was placed for 10 min on a shaker.
5 μl of each well was transferred from the 96-well intermediate plate to a 384-well plate in duplicates. For example, A1 of the 96-well plate is transferred to A1 and A2 of the 384-well plate. A2 of the 96-well plate is transferred to A3 and A4 of the 384-well plate, and so on.
IRAK4 and DTT in 1x kinase base buffer was added. The 2.5x enzyme mix contained 8.8 nM IRAK4 and 5 mM DTT.
Peptide 8, ATP, MgCl2 and MnCl2 were added in the 1x kinase base buffer. The 2.5x peptide mix contained 3.75 μM peptide 8, 92.5 μM ATP, 12.5 mM MgCl2 and 2.5 mM MnCl2.
Assay plate already contained 5 μl of compound in 10% DMSO. Added 10 μl of 2.5x enzyme solution to each well of the 384-well assay plate, except no enzyme control wells. The final concentration of IRAK4 in reaction was 3.5 nM. Added 10 μl of 1x kinase base buffer to no enzyme control wells in the assay plate. Incubated at room temperature for 10 min.
Added 10 μl of 2.5x peptide solution to each well of the 384-well assay plate. The final concentration of Peptide 8 and ATP was 1.5 μM and 37 μM, respectively. Incubated at for 40 minutes. Added 25 μl of stop buffer to stop reaction. Collected data on Caliper.
Copied conversion % data from Caliper program. Converted conversion % values to percent inhibition values. Percent inhibition=(max−conversion %)/(max−min)*100, where “max” means the conversion % of DMSO control and “min” means the conversion % of no enzyme control.
The compound numbers correspond to the compound numbers in Table 1. Compounds having an activity designated as “A” provided an IC50≦5 μM; compounds having an activity designated as “B” provided an IC50 of 5-20 μM; compounds having an activity designated as “C” provided an IC50 of 20-50 μM; and compounds having an activity designated as “D” provided an IC50≧50 μM. “NA” stands for “not assayed.”

SMILES	IC50 [1]	IC50 [2]	IC50 (IRAK4)
Brc1ccc2ncnc(N[C@H]3CC[C@H](N4CCOCC4)CC3)c2c1 [Compound I-2, 6-bromo-N-((1r,4r)-4-morpholinocyclohexyl)quinazolin-4-amine]	≤ 0.5 µM	≤ 0.5 µM	≤ 5 µM
NC(=O)c1ccc2ncnc(N[C@H]3CC[C@H](N4CCOCC4)CC3)c2c1 [Compound I-5, 4-(((1r,4r)-4-morpholinocyclohexyl)amino)quinazoline-6-carboxamide]	> 5 µM	0.5 to 5 µM	≤ 5 µM
Cn1cc(Nc2nc(N[C@H]3CC[C@H](N4CCOCC4)CC3)c3cc(Br)ccc3n2)cn1 [Compound I-10, 6-bromo-N2-(1-methyl-1H-pyrazol-4-yl)-N4-((1r,4r)-4-morpholinocyclohexyl)quinazoline-2,4-diamine]	≤ 0.5 µM	≤ 0.5 µM	≤ 5 µM
Cn1cc(Nc2nc(N[C@H]3CC[C@H](N4CCOCC4)CC3)c3cc(C#N)ccc3n2)cn1 [Compound I-11, 2-((1-methyl-1H-pyrazol-4-yl)amino)-4-(((1r,4r)-4-morpholino-cyclohexyl)amino)quinazoline-6-carbonitrile]	≤ 0.5 µM	≤ 0.5 µM	≤ 5 µM
N#Cc1ccc2ncnc(N[C@H]3CC[C@H](N4CCC5(CC4)COC5)CC3)c2c1 [Compound I-14, 4-(((1r,4r)-4-(2-oxa-7-azaspiro[3.5]nonan-7-yl)cyclohexyl)amino)-quinazoline-6-carbonitrile]	≤ 0.5 µM	≤ 0.5 µM	≤ 5 µM
CCc1ccc2ncnc(N[C@H]3CC[C@H](N4CCOCC4)CC3)c2c1 [Compound I-15, 6-ethyl-N-((1r,4r)-4-morpholinocyclohexyl)quinazolin-4-amine]	≤ 0.5 µM	≤ 0.5 µM	≤ 5 µM
N#Cc1ccc2nc(Nc3cnn(C4CCOCC4)c3)nc(N[C@H]3CC[C@H](N4CCOCC4)CC3)c2c1 [Compound I-16, 4-(((1r,4r)-4-morpholinocyclohexyl)amino)-2-((1-(tetrahydro-2H-pyran-4-yl)-1H-pyrazol-4-yl)amino)quinazoline-6-carbonitrile]	≤ 0.5 µM	≤ 0.5 µM	≤ 5 µM
C=Cc1ccc2ncnc(N[C@H]3CC[C@H](N4CCOCC4)CC3)c2c1 [Compound I-20, N-((1r,4r)-4-morpholinocyclohexyl)-6-vinylquinazolin-4-amine]		≤ 0.5 µM	≤ 5 µM
N#Cc1ccc2nc(Nc3cnn(CCO)c3)nc(N[C@H]3CC[C@H](N4CCOCC4)CC3)c2c1 [Compound I-22, 2-((1-(2-hydroxyethyl)-1H-pyrazol-4-yl)amino)-4-(((1r,4r)-4-morpholinocyclohexyl)amino)quinazoline-6-carbonitrile]	≤ 0.5 µM	0.5 to 5 µM	≤ 5 µM
N#Cc1ccc2nc(Nc3cnn(CCOCCO)c3)nc(N[C@H]3CC[C@H](N4CCOCC4)CC3)c2c1 [Compound I-24, 2-((1-(2-(2-hydroxyethoxy)ethyl)-1H-pyrazol-4-yl)amino)-4-(((1r,4r)-4-morpholinocyclohexyl)amino)quinazoline-6-carbonitrile]	≤ 0.5 µM	0.5 to 5 µM	≤ 5 µM
CS(=O)(=O)CCCn1cc(Nc2nc(N[C@H]3CC[C@H](N4CCOCC4)CC3)c3cc(C#N)ccc3n2)cn1 [Compound I-25, 2-((1-(3-(methylsulfonyl)propyl)-1H-pyrazol-4-yl)amino)-4-(((1r,4r)-4-morpholinocyclohexyl)amino)quinazoline-6-carbonitrile]	0.5 to 5 µM	0.5 to 5 µM	≤ 5 µM
Clc1ccc2ncnc(N[C@H]3CC[C@H](N4CCOCC4)CC3)c2c1 [Compound I-26, 6-chloro-N-((1r,4r)-4-morpholinocyclohexyl)quinazolin-4-amine]	≤ 0.5 µM	≤ 0.5 µM	≤ 5 µM
Clc1ccc2ncnc(N[C@H]3CC[C@H](N4CCC5(CC4)COC5)CC3)c2c1 [Compound I-27, N-((1r,4r)-4-(2-oxa-7-azaspiro[3.5]nonan-7-yl)cyclohexyl)-6-chloroquinazolin-4-amine]	≤ 0.5 µM	≤ 0.5 µM	≤ 5 µM
N#Cc1ccc2nc(Nc3cnn(C4CCC(O)CC4)c3)nc(N[C@H]3CC[C@H](N4CCOCC4)CC3)c2c1 (some centres unmarked) [Compound I-28, 2-((1-(4-hydroxycyclohexyl)-1H-pyrazol-4-yl)amino)-4-(((1r,4r)-4-morpholinocyclohexyl)amino)quinazoline-6-carbonitrile]	≤ 0.5 µM	≤ 0.5 µM	≤ 5 µM
c1nc(N[C@H]2CC[C@H](N3CCOCC3)CC2)c2c3c(ccc2n1)CCC3 [Compound I-29, N-((1r,4r)-4-morpholinocyclohexyl)-8,9-dihydro-7H-cyclo-penta[f]quinazolin-1-amine]	≤ 0.5 µM	0.5 to 5 µM	≤ 5 µM
OCC#Cc1ccc2ncnc(N[C@H]3CC[C@H](N4CCOCC4)CC3)c2c1 [Compound I-30, 3-(4-(((1r,4r)-4-morpholinocyclohexyl)amino)quinazolin-6-yl)prop-2-yn-1-ol]	≤ 0.5 µM	≤ 0.5 µM	≤ 5 µM
c1nc(O[C@H]2CC[C@H](N3CCOCC3)CC2)c2c3c(ccc2n1)CCC3 [Compound I-31, 4-((1r,4r)-4-((8,9-dihydro-7H-cyclopenta[f]quinazolin-1-yl)oxy)cyclohexyl)morpholine]	≤ 0.5 µM	0.5 to 5 µM	≤ 5 µM
N#CCc1ccc2ncnc(N[C@H]3CC[C@H](N4CCOCC4)CC3)c2c1 [Compound I-34, 2-(4-(((1r,4r)-4-morpholinocyclohexyl)amino)-quinazolin-6-yl)acetonitrile]	≤ 0.5 µM	0.5 to 5 µM	≤ 5 µM
C#Cc1ccc2ncnc(N[C@H]3CC[C@H](N4CCOCC4)CC3)c2c1 [Compound I-35, 6-ethynyl-N-((1r,4r)-4-morpholinocyclohexyl)quinazolin-4-amine]	≤ 0.5 µM	0.5 to 5 µM	≤ 5 µM
